Here are results for 27 compounds from US8415351B2 (priority 2007, dated 2013).

pEC50: −log10 of the molar value. Where only a bound is given, the exact number is not on record here.

Assay [1] deals with genotype 1a-H77 subgenomic replicon cell line. Briefly: microbe, parasite or virus in culture. It counts as cell-based, HCV. The conditions noted are these: Hepatitis C virus, read-out: EC50 1a.
Assay [2] concerns genotype 1b-Con1 subgenomic replicon cell line. As to the kind of experiment: microbe, parasite or virus in culture. It counts as cell-based, HCV. The settings on record: Hepatitis C virus, read-out: EC50 1b.

The term pEC50 denotes the EC50 on a negative log10 scale, so that one unit is a factor of ten. `COc1c(/C=C/c2ccc(NS(C)(=O)=O)cc2C(=O)N2CCOCC2)cc(-n2ccc(=O)[nH]c2=O)cc1C(C)(C)C` [IB-L1-1.23, (E)-N-(4-(3-tert-butyl-5-(2,4-dioxo-3,4-dihydropyrimidin-1(2H)-yl)-2-methoxystyryl)-3-(morpholine-4-carbonyl)phenyl)methanesulfonamide]: the pEC50 in assay [1] is 6.00 to 7.00; in assay [2] it was > 8.00.

Consider `COc1c(/C=C/c2ccc(NS(C)(=O)=O)cc2)cc(-n2ccc(=O)[nH]c2=O)cc1C(C)(C)CO` [IB-L1-1.45, (E)-N-(4-(5-(2,4-dioxo-3,4-dihydropyrimidin-1(2H)-yl)-3-(1-hydroxy-2-methylpropan-2-yl)-2-methoxystyryl)phenyl)methanesulfonamide], for which the values for the pEC50 in assay [1] and in assay [2] were 7.00 to 8.00 and > 8.00, respectively.

In the case of `COc1c(-c2ccc3nc(NS(C)(=O)=O)sc3c2)cc(-n2ccc(=O)[nH]c2=O)cc1C(C)(C)C` [IB-L0-2.28, N-(6-(3-tert-butyl-5-(2,4-dioxo-3,4-dihydropyrimidin-1(2H)-yl)-2-methoxyphenyl)benzo[d]thiazol-2-yl)methanesulfonamide], the pEC50 was < 6.00 in assay [1] and 6.00 to 7.00 in assay [2].

Regarding `COc1c(/C=C/c2ccc(NS(C)(=O)=O)c(F)c2)cc(-n2ccc(=O)[nH]c2=O)cc1C(C)(C)C` [IB-L1-1.5, (E)-N-(4-(3-tert-butyl-5-(2,4-dioxo-3,4-dihydropyrimidin-1(2H)-yl)-2-methoxystyryl)-2-fluorophenyl)methanesulfonamide], the pEC50 is 7.00 to 8.00 in assay [1] and > 8.00 in assay [2].

Consider `COc1c(/C=C(\C)c2ccc([N+](=O)[O-])cc2)cc(N2CCC(=O)NC2=O)cc1C(C)(C)C` [IA-L1-1.24, 1-{3-tert-butyl-4-methoxy-5-[(E)-2-(4-nitro-phenyl)-propenyl]-phenyl}-dihydro-pyrimidine-2,4-dione], for which the pEC50 in assay [1] and in assay [2] was < 6.00 in each case.

On to `COc1c(/C=C/c2ccc(NS(C)(=O)=O)cc2C(N)=O)cc(-n2ccc(=O)[nH]c2=O)cc1C(C)(C)C` [IB-L1-1.21, 2-{(E)-2-[3-tert-butyl-5-(2,4-dioxo-3,4-dihydro-2H-pyrimidin-1-yl)-2-methoxy-phenyl]-vinyl}-5-methanesulfonylamino-benzamide], for which the pEC50 in assay [1] is 7.00 to 8.00; in assay [2], > 8.00.

With `COc1c(/C=C/c2ccc(NS(C)(=O)=O)cc2-c2ncco2)cc(-n2ccc(=O)[nH]c2=O)cc1C(C)(C)C` [IB-L1-1.26, (E)-N-(4-(3-tert-butyl-5-(2,4-dioxo-3,4-dihydropyrimidin-1(2H)-yl)-2-methoxystyryl)-3-(oxazol-2-yl)phenyl)methanesulfonamide], the pEC50 in assay [1] is 7.00 to 8.00; in assay [2], > 8.00.

`COc1c(I)cc(-n2ccc(=O)[nH]c2=O)cc1/C=C/c1ccc(NS(C)(=O)=O)cc1` [IB-L1-1.51, (E)-N-(4-(5-(2,4-dioxo-3,4-dihydropyrimidin-1(2H)-yl)-3-iodo-2-methoxystyryl)phenyl)methanesulfonamide]: the values for the pEC50 in assay [1] and in assay [2] were < 6.00 and 7.00 to 8.00, respectively.

Turning to `COc1c(-c2nc3ccc(NS(C)(=O)=O)cc3s2)cc(N2CCC(=O)NC2=O)cc1C(C)(C)C` [IA-L0-2.2, N-(2-(3-tert-butyl-5-(2,4-dioxotetrahydropyrimidin-1(2H)-yl)-2-methoxyphenyl)benzo[d]thiazol-6-yl)methanesulfonamide], the results for the pEC50 in assay [1] and in assay [2] were 6.00 to 7.00 and 7.00 to 8.00, respectively.

Take `COc1c(-c2ccc3cc(NS(C)(=O)=O)ccc3c2)cc(-n2ccc(=O)[nH]c2=O)cc1S(C)(=O)=O` [IB-L0-2.68, N-(6-(5-(2,4-dioxo-3,4-dihydropyrimidin-1(2H)-yl)-2-methoxy-3-(methylsulfonyl)phenyl)naphthalen-2-yl)methanesulfonamide]: the pEC50 in assay [1] is < 6.00; in assay [2], 6.00 to 7.00.

Consider `COc1c(-c2ccc3cc(NS(C)(=O)=O)ccc3c2)cc(-n2ccc(=O)[nH]c2=O)cc1-c1cccs1` [IB-L0-2.61, N-(6-(5-(2,4-dioxo-3,4-dihydropyrimidin-1(2H)-yl)-2-methoxy-3-(thiophen-2-yl)phenyl)naphthalen-2-yl)methanesulfonamide], for which the pEC50 in assay [1] was 6.00 to 7.00; in assay [2], 7.00 to 8.00.

For the compound `COc1c(CCc2ccc(NS(C)(=O)=O)cc2)cc(-n2ccc(=O)[nH]c2=O)cc1C(C)(C)C` [IB-L5-2-1.2, N-(4-(3-tert-butyl-5-(2,4-dioxo-3,4-dihydropyrimidin-1(2H)-yl)-2-methoxyphenethyl)phenyl)methanesulfonamide], the pEC50 in assay [1] is 6.00 to 7.00; in assay [2] it was 7.00 to 8.00.

Take `COc1c(NS(C)(=O)=O)cc(-n2ccc(=O)[nH]c2=O)cc1-c1ccc2cc(NS(C)(=O)=O)ccc2c1` [IB-L0-2.75, N-(5-(2,4-dioxo-3,4-dihydropyrimidin-1(2H)-yl)-2-methoxy-3-(6-(methylsulfonamido)naphthalen-2-yl)phenyl)methanesulfonamide]: the pEC50 in assay [1] and in assay [2] was < 6.00 throughout.

On to `COc1c(/C=C/c2ccc(NS(C)(=O)=O)cc2)cc(-n2ccc(=O)[nH]c2=O)cc1-c1ccsc1` [IB-L1-1.47, (E)-N-(4-(5-(2,4-dioxo-3,4-dihydropyrimidin-1(2H)-yl)-2-methoxy-3-(thiophen-3-yl)styryl)phenyl)methanesulfonamide], for which the pEC50 in assay [1] was 6.00 to 7.00; in assay [2] it was 7.00 to 8.00.

Take `COc1c(-c2ccc3nc(Cl)sc3c2)cc(-n2ccc(=O)[nH]c2=O)cc1C(C)(C)C` [IB-L0-2.38, 1-(3-tert-butyl-5-(2-chlorobenzo[d]thiazol-6-yl)-4-methoxyphenyl)pyrimidine-2,4(1H,3H)-dione]: the negative logarithm of the EC50 (pEC50) in assay [1] and in assay [2] was < 6.00 in each case.

As to `COc1c(I)cc(-n2ccc(=O)[nH]c2=O)cc1-c1ccc2cc(NS(C)(=O)=O)ccc2c1` [IB-L0-2.57, N-(6-(5-(2,4-dioxo-3,4-dihydropyrimidin-1(2H)-yl)-3-iodo-2-methoxyphenyl)naphthalen-2-yl)methanesulfonamide], the pEC50 in assay [1] is 6.00 to 7.00; in assay [2] it was 7.00 to 8.00.

Regarding `COc1c(/C=C(\F)c2ccc(NS(C)(=O)=O)cc2)cc(N2CCC(=O)NC2=O)cc1C(C)(C)C` [IA-L1-1.4, (Z)—N-(4-(2-(3-tert-butyl-5-(2,4-dioxotetrahydropyrimidin-1(2H)-yl)-2-methoxyphenyl)-1-fluorovinyl)phenyl)methanesulfonamide], the pEC50 in assay [1] and in assay [2] was > 8.00 each time.

Turning to `COCCNC(=O)c1cc(NS(C)(=O)=O)ccc1/C=C/c1cc(-n2ccc(=O)[nH]c2=O)cc(C(C)(C)C)c1OC` [IB-L1-1.9, 2-{(E)-2-[3-tert-Butyl-5-(2,4-dioxo-3,4-dihydro-2H-pyrimidin-1-yl)-2-methoxy-phenyl]-vinyl}-5-methanesulfonylamino-N-(2-methoxy-ethyl)-benzamide], the figures for the negative-log EC50 (pEC50) in assay [1] and in assay [2] were 7.00 to 8.00 and > 8.00, respectively.

Regarding `COc1c(/C=C/c2cc(F)c(NS(C)(=O)=O)cc2C)cc(-n2ccc(=O)[nH]c2=O)cc1C(C)(C)C` [IB-L1-1.15, (E)-N-(4-(3-tert-butyl-5-(2,4-dioxo-3,4-dihydropyrimidin-1 (2H)-yl)-2-methoxystyryl)-2-fluoro-5-methylphenyl)methanesulfonamide], the pEC50 in assay [1] and in assay [2] was > 8.00 each time.

Take `COc1c(/C=C/c2ccc(F)cc2)cc(N2CCC(=O)NC2=O)cc1C(C)(C)C` [IA-L1-1.12, (E)-1-(3-tert-butyl-5-(4-fluorostyryl)-4-methoxyphenyl) dihydropyrimidine-2,4(1H,3H)-dione]: the pEC50 in assay [1] and in assay [2] was 6.00 to 7.00 throughout.

As to `COc1c(/C=C/c2ccc(NS(C)(=O)=O)cc2)cc(N2CCC(=O)NC2=O)cc1C(C)(C)C` [IA-L1-1.9, (E)-N-(4-(3-tert-butyl-5-(2,4-dioxotetrahydropyrimidin-1(2H)-yl)-2-methoxystyryl)phenyl)methanesulfonamide], the values for the pEC50 in assay [1] and in assay [2] were 7.00 to 8.00 and > 8.00, respectively.

As for `CCC(C)(C)c1cc(-n2ccc(=O)[nH]c2=O)cc(-c2ccc3cc(NS(C)(=O)=O)ccc3c2)c1OC` [IB-L0-2.52, N-(6-(5-(2,4-dioxo-3,4-dihydropyrimidin-1(2H)-yl)-2-methoxy-3-tert-pentylphenyl)naphthalen-2-yl)methanesulfonamide], the pEC50 is 7.00 to 8.00 in assay [1] and > 8.00 in assay [2].

Take `COC(=O)c1cc(NS(C)(=O)=O)ccc1/C=C/c1cc(-n2ccc(=O)[nH]c2=O)cc(C(C)(C)C)c1OC` [IB-L1-1.7, (K)-methyl 2-(3-tert-butyl-5-(2,4-dioxo-3,4-dihydropyrimidin-1(2H)-yl)-2-methoxystyryl)-5-(methylsulfonamido)benzoate]: the pEC50 in assay [1] and in assay [2] was > 8.00 in each case.

As for `COc1c(-c2ccc3c(c2)CCN3S(C)(=O)=O)cc(-n2ccc(=O)[nH]c2=O)cc1C(C)(C)C` [IB-L0-2.32, 1-(3-tert-butyl-4-methoxy-5-(1-(methylsulfonyl)indolin-5-yl)phenyl)pyrimidine-2,4(1H,3H)-dione], the values for the pEC50 in assay [1] and in assay [2] were 6.00 to 7.00 and 7.00 to 8.00, respectively.

Take `COc1c(N2CCc3cc(NS(C)(=O)=O)ccc3C2)cc(-n2ccc(=O)[nH]c2=O)cc1C(C)(C)C` [IB-L0-2.19, N-(2-(3-tert-butyl-5-(2,4-dioxo-3,4-dihydropyrimidin-1(2H)-yl)-2-methoxyphenyl)-1,2,3,4-tetrahydroisoquinolin-6-yl)methanesulfonamide]: the pEC50 in assay [1] and in assay [2] was 7.00 to 8.00 in each case.

Take `COc1c(-c2ccc3c(c2)/C(=N/NS(C)(=O)=O)CC3)cc(-n2ccc(=O)[nH]c2=O)cc1-c1cccs1` [IB-L0-2.51, (E)-N′-(6-(5-(2,4-dioxo-3,4-dihydropyrimidin-1(2H)-yl)-2-methoxy-3-(thiophen-2-yl)phenyl)-2,3-dihydro-1H-inden-1-ylidene)methanesulfonohydrazide]: the pEC50 in assay [1] was 7.00 to 8.00; in assay [2], > 8.00.

On to `COc1c(-c2nc3ccc([N+](=O)[O-])cc3o2)cc(N2CCC(=O)NC2=O)cc1C(C)(C)C` [IA-L0-2.6, 1-(3-tert-butyl-4-methoxy-5-(6-nitrobenzo[d]oxazol-2-yl)phenyl) dihydropyrimidine-2,4(1H,3H)-dione], for which the pEC50 in assay [1] and in assay [2] was < 6.00 each time.
